In patent publication US6706740B2, “Fungicidal heterocyclic aromatic amides and their compositions, methods of use and preparation” (Dow AgroSciences LLC, priority 1999, dated 2004):

Tests used:
[1] = system: Magnaporthe grisea (Pyricularia oryzae—PYRIOR); experiment: microbe, parasite or virus in culture; assay type: cell-based; conditions: Pyricularia oryzae, read-out: PYRIOR in vitro Growth Inhibition
[2] = system: Rhizoctonia solani (RHIZSO); experiment: microbe, parasite or virus in culture; assay type: cell-based; conditions: Rhizoctonia solani, read-out: RHIZSO in vitro Growth Inhibition
[3] = system: Mycosphaerella graminicola (Septoria tritici—SEPTTR); experiment: In vitro fungal growth inhibition, Mycosphaerella graminicola (SEPTTR); assay type: cell-based; conditions: Zymoseptoria tritici; 25 ppm in growth medium; read-out: SEPTTR in vitro Growth Inhibition
[4] = system: Stagonospora nodorum (Leptosphaeria nodorum—LEPTNO); experiment: In vitro fungal growth inhibition, Stagonospora nodorum (LEPTNO); assay type: cell-based; conditions: Leptosphaeria; 25 ppm in growth medium; read-out: LEPTNO in vitro Growth Inhibition
Ustilago maydis (USTIMA) = experiment: microbe, parasite or virus in culture; assay type: cell-based; conditions: Mycosarcoma maydis, read-out: USTIMA in vitro Growth Inhibition
[5] = system: Phytophthora infestans (PHYTIN); experiment: microbe, parasite or virus in culture; assay type: cell-based; conditions: Phytophthora infestans, read-out: PHYTIN in vitro Growth Inhibition
[6] = system: Phytophthora infestans—PHYTIN; experiment: whole plant or invertebrate; assay type: in vivo; conditions: Phytophthora, in Solanum lycopersicum, 24 h, read-out: PHYTIN in vivo 1 Day Protectant
[7] = system: Puccinia recondita—PUCCRT; experiment: Brown Rust of Wheat, in vivo whole plant, 24 Hour Protectant; conditions: Puccinia; 100 ppm spray, wheat, 24 hour protectant; control of fungal infection vs untreated plants; read-out: PUCCRT in vivo 1 Day Protectant
Erysiphe graminis—ERYSGT = experiment: Powdery Mildew of Wheat, in vivo whole plant, 24 Hour Protectant; conditions: Erysiphe; 100 ppm spray, wheat, 24 hour protectant; control of fungal infection vs untreated plants; read-out: ERYSGT in vivo 1 Day Protectant
Septoria tritici—SEPTTR = experiment: Leaf Blotch of Wheat, in vivo whole plant, 24 Hour Protectant; conditions: Zymoseptoria tritici, 24 h, 100 ppm spray, wheat, 24 hour protectant; control of fungal infection vs untreated plants; read-out: SEPTTR in vivo 1 Day Protectant
[8] = system: Leptosphaeria nodorum—LEPTNO; experiment: Glume Blotch of Wheat, in vivo whole plant, 24 Hour Protectant; conditions: 100 ppm spray, wheat, 24 hour protectant, control of fungal infection vs untreated plants; for pest or weed control at 100 ppm: Leptosphaeria, read-out: LEPTNO in vivo 1 Day Protectant

| Structure (SMILES) | inhibition at 25 ppm [1] | inhibition at 25 ppm [2] | inhibition at 25 ppm [3] | inhibition at 25 ppm [4] | inhibition at 25 ppm (Ustilago maydis (USTIMA)) | inhibition at 25 ppm [5] | pest or weed control at 100 ppm [6] | pest or weed control at 100 ppm [7] | pest or weed control at 100 ppm (Erysiphe graminis—ERYSGT) | pest or weed control at 100 ppm (Septoria tritici—SEPTTR) | pest or weed control at 100 ppm [8] | LEPTNO in vivo 1 Day Protectant [8] |
| --- | --- | --- | --- | --- | --- | --- | --- | --- | --- | --- | --- | --- |
| COc1cccc(Oc2cccc(NC(=O)c3nccc(OC)c3O)c2)c1 [Compound 431] | < 80% | < 80% | > 80% | > 80% | < 80% | < 80% | < 25% | < 25% | < 25% | 25 to 74% | < 25% |  |
| COc1ccc(Oc2cccc(NC(=O)c3nccc(OC)c3O)c2)cc1 [Compound 432] | < 80% | < 80% | > 80% | > 80% | < 80% | < 80% | < 25% | 25 to 74% | < 25% | < 25% | 25 to 74% |  |
| COc1ccccc1Oc1ccc(NC(=O)c2nccc(OC)c2O)cc1 [Compound 433] | < 80% | < 80% | > 80% | < 80% | < 80% | < 80% | < 25% | < 25% | < 25% | < 25% | < 25% |  |
| COc1cccc(Oc2ccc(NC(=O)c3nccc(OC)c3O)cc2)c1 [Compound 434] | < 80% | < 80% | > 80% | > 80% | < 80% | < 80% | < 25% | < 25% | 25 to 74% | < 25% | 25 to 74% |  |
| COc1ccc(Oc2ccc(NC(=O)c3nccc(OC)c3O)cc2)cc1 [Compound 435] | < 80% | < 80% | > 80% | < 80% | < 80% | < 80% | < 25% | < 25% | < 25% | < 25% | 25 to 74% |  |
| COc1ccnc(C(=O)Nc2ccccc2Oc2cccc(Cl)c2)c1O [Compound 437] | < 80% | < 80% | > 80% | < 80% | < 80% | < 80% | 25 to 74% | < 25% | < 25% | < 25% | < 25% |  |
| COc1ccnc(C(=O)Nc2ccccc2Oc2ccc(Cl)cc2)c1O [Compound 438] | > 80% | < 80% | > 80% | > 80% | < 80% | < 80% | < 25% | < 25% | < 25% | < 25% | < 25% |  |
| COc1ccnc(C(=O)Nc2cccc(Oc3ccccc3Cl)c2)c1O [Compound 439] | < 80% | < 80% | < 80% | < 80% | < 80% | < 80% | < 25% | 25 to 74% | < 25% | < 25% | 25 to 74% |  |
| COc1ccnc(C(=O)Nc2cccc(Oc3ccc(Cl)cc3)c2)c1O [Compound 440] | > 80% | < 80% | > 80% | > 80% | < 80% | < 80% | < 25% | 25 to 74% | < 25% | 25 to 74% |  | + + |
| COc1ccnc(C(=O)Nc2ccc(Oc3ccccc3Cl)cc2)c1O [Compound 441] | < 80% | < 80% | > 80% | < 80% | < 80% | < 80% | < 25% | < 25% | < 25% | < 25% | < 25% |  |
| COc1ccnc(C(=O)Nc2ccc(Oc3cccc(Cl)c3)cc2)c1O [Compound 442] | > 80% | < 80% | > 80% | > 80% | < 80% | < 80% | 25 to 74% | 25 to 74% | < 25% | < 25% | < 25% |  |
| COc1ccnc(C(=O)Nc2ccc(Oc3ccc(Cl)cc3)cc2)c1O [Compound 443] | < 80% | < 80% | < 80% | > 80% | < 80% | < 80% | < 25% | 25 to 74% | < 25% | < 25% | < 25% |  |
| COc1ccnc(C(=O)Nc2ccc(Sc3ccc(C(F)(F)F)cc3)cc2)c1O [Compound 446] | < 80% | < 80% | < 80% | < 80% | < 80% | < 80% | 25 to 74% | < 25% | < 25% | < 25% | < 25% |  |
| COc1ccnc(C(=O)Nc2ccc(OCc3cccc(C(F)(F)F)c3)cc2)c1O [Compound 447] | < 80% | < 80% | < 80% | < 80% | < 80% | < 80% | < 25% | < 25% | < 25% | < 25% | 25 to 74% |  |
| COc1ccnc(C(=O)Nc2ccc(OCc3ccc(C(F)(F)F)cc3)cc2)c1O [Compound 448] | < 80% | < 80% | < 80% | < 80% | > 80% | < 80% | < 25% | 25 to 74% | < 25% | 25 to 74% |  | + + |
| COc1ccnc(C(=O)Nc2ccc(C(=O)Nc3cccc(C(F)(F)F)c3)cc2)c1O [Compound 449] | > 80% | > 80% | < 80% | < 80% | < 80% | < 80% | < 25% | < 25% | < 25% | 25 to 74% | 25 to 74% |  |
| COc1ccnc(C(=O)Nc2ccc(C(=O)Oc3ccc(C(F)(F)F)cc3)cc2)c1O [Compound 452] | < 80% | < 80% | < 80% | < 80% | < 80% | < 80% | < 25% | < 25% | < 25% | 25 to 74% | 25 to 74% |  |
| COc1ccnc(C(=O)Nc2cc(C)c(OC(=O)C(C)C)c(C)c2)c1O [Compound 455] | < 80% | < 80% | < 80% | > 80% | > 80% | < 80% | < 25% | < 25% | < 25% | 25 to 74% | 25 to 74% |  |
| COc1ccnc(C(=O)Nc2cc(C)c(OC(=O)c3ccccc3)c(C)c2)c1O [Compound 456] | < 80% | < 80% | > 80% | > 80% | < 80% | < 80% | < 25% | < 25% | < 25% | 25 to 74% | < 25% |  |
